{"source": "paper PMC9953885", "about": "(Biosensors, 2023)", "note": "Counter-ions that a name gives are not always drawn."}
{"molecular_target": "T1, human pancreatic lipase (hPL) (Homo sapiens, UniProt P16233)", "T1 construct": "gene PNLIP", "T1 sequence (P16233 17-465)": "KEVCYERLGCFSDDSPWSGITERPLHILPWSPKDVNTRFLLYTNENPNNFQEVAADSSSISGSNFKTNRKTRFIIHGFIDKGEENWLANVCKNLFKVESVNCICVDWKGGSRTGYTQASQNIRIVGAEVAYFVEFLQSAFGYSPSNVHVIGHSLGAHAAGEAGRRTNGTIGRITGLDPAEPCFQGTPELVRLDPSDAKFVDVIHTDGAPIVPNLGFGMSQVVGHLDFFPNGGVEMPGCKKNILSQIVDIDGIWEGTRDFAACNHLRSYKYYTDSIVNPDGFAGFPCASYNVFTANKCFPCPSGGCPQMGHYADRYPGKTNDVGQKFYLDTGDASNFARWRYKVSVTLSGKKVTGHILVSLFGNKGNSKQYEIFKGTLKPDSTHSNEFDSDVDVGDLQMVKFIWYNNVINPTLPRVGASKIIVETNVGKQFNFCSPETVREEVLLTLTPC", "settings": "10 µM; inhibitor", "procedure": "First, we evaluated the inhibitory effect of 94 natural products derived from herbs and 94 drugs on hPL. In our high-throughput screening system, 1 ug/mL hPL was used, and the final concentration of the 94 natural products derived from herbs and 94 drugs used was 10 μM. Other conditions were the same as in the selectivity experiments. […] RLE was incubated with hPL and various enzymes, such as hCES1A, hCES2A, CA, AchE, BchE, 5-HKE, lysozyme, trypsin, thrombin, α-CT, FAP, PREP, pepsin, α-amylase, plasmin, notum and hSA, in a 100 µL incubation mixture consisting of Tris-HCl (pH = 7.4, 25 mM), NaCl (150 mM), CaCl2 (1 mM) and porcine bile salt (0.1 mg/mL) at a concentration of 1.5 µg/mL. The reaction was initiated by adding RLE to the preincubated enzyme mixture at 37 °C, and metabolite formation was determined by measuring the fluorescence intensity of resorufin at 590 nm. In addition, several amino acids (IIe, His, Trp, Val, Leu, Tyr, Ala, Thr, Pro, Asp, Lys, Met, Cys, Ser, Phe, Gly, Glu and Gln), ions (Ni^2+, Ca^2+, Na^+, K^+, Cu^2+, Zn^2+, Mg^2+, NH4^+, Cu^+, Fe^2+ and CN^-) and GSH were measured. The concentration of these interfering factors was 5 μM. […] In this case, a visual high-throughput assay was established to screen hPL inhibitors, using RLE as a fluorogenic substrate in a 96-well microplate.", "units": {"% of control remaining": "%"}}
{"smiles": "COC(=O)/C=C/c1ccc(O)c(O)c1", "note": "[Methyl caffeate]", "% of control remaining": 72.74}
{"smiles": "O=C(CCc1ccc(O)cc1)c1c(O)cc(O)cc1O", "note": "[Phloretin]", "% of control remaining": 81.23}
{"smiles": "COC(=O)C1=CO[C@@H](O)[C@@H]2C(CO)=CC[C@H]12", "note": "[Genipin]", "% of control remaining": 99.28}
{"smiles": "C=C1C(=O)O[C@@H]2C[C@@]3(C)CCCC(=C)[C@@H]3C[C@H]12", "note": "[Isoalantolactone]", "% of control remaining": 70.02}
{"smiles": "CC(=O)CC(c1ccccc1)c1c(O)c2ccccc2oc1=O", "note": "(stereo not drawn) [Warfarin sodium]", "% of control remaining": 84.05}
{"smiles": "O=C(O)/C=C/c1ccc(O)cc1", "note": "[p-Coumaric acid]", "% of control remaining": 98.98}
{"smiles": "COc1cc([C@@H]2c3cc4c(cc3[C@@H](O[C@@H]3O[C@@H]5CO[C@@H](C)O[C@H]5[C@H](O)[C@H]3O)[C@H]3COC(=O)[C@H]23)OCO4)cc(OC)c1O", "note": "[Etoposide]", "% of control remaining": 65.05}
{"smiles": "COc1ccc(-c2coc3cc(O[C@@H]4O[C@H](CO)[C@@H](O)[C@H](O)[C@H]4O)ccc3c2=O)cc1O", "note": "[Calycosin 7-O-glucoside]", "% of control remaining": 84.02}
{"smiles": "Cc1ccc(-c2cc(C(F)(F)F)nn2-c2ccc(S(N)(=O)=O)cc2)cc1", "note": "[Celecoxib]", "% of control remaining": 90.67}
{"smiles": "CCC(CC)COC(=O)[C@H](C)N[P@](=O)(OC[C@H]1O[C@@](C#N)(c2ccc3c(N)ncnn23)[C@H](O)[C@@H]1O)Oc1ccccc1", "note": "[Remdesivir]", "% of control remaining": 98.67}
{"smiles": "O=C1C[C@@H](c2ccccc2)Oc2cc(O)cc(O)c21", "note": "[Pinocembrin]", "% of control remaining": 91.25}
{"smiles": "CCC(=O)O[C@H]1CC[C@H]2[C@@H]3CCC4=CC(=O)CC[C@]4(C)[C@H]3CC[C@]12C", "note": "[Testosterone propionate]", "% of control remaining": 65.37}
{"smiles": "COc1ccc2c(c1)c(CC(=O)O)c(C)n2C(=O)c1ccc(Cl)cc1", "note": "[Indometacin]", "% of control remaining": 102.95}
{"smiles": "Oc1cc(O)c2c(c1)OC(c1ccc(O)c(O)c1)C(OC1(c3ccc(O)c(O)c3)Oc3cc(O)cc(O)c3C(O)C1O)C2", "note": "(stereo not drawn) [Procyanidin]", "% of control remaining": 5.72}
{"smiles": "O=C(O)/C=C/c1ccccc1", "note": "[trans-Cinnamic acid]", "% of control remaining": 72.50}
{"smiles": "CC(C)OC(=O)OCOP(=O)(CO[C@H](C)Cn1cnc2c(N)ncnc21)OCOC(=O)OC(C)C", "note": "[Tenofovir disoproxil]", "% of control remaining": 91.86}
{"smiles": "C=C1C(=O)O[C@@H]2C[C@@]3(C)CCC[C@H](C)C3=C[C@H]12", "note": "[Alantolactone]", "% of control remaining": 61.11}
{"smiles": "NCC[C@H](O)C(=O)N[C@@H]1C[C@H](N)[C@@H](O[C@H]2O[C@H](CN)[C@@H](O)[C@H](O)[C@H]2O)[C@H](O)[C@H]1O[C@H]1O[C@H](CO)[C@@H](O)[C@H](N)[C@H]1O", "note": "[Amikacin]", "% of control remaining": 73.77}
{"smiles": "COc1cc(-c2coc3cc4c(c(OC)c3c2=O)OCO4)cc(OC)c1OC", "note": "[Irisflorentin]", "% of control remaining": 66.38}
{"smiles": "CCOC(=O)C1=C(COCCN)NC(C)=C(C(=O)OC)C1c1ccccc1Cl", "note": "(stereo not drawn) [Amlodipine]", "% of control remaining": 85.85}
{"smiles": "COc1cc(/C=C/C(=O)CC(=O)/C=C/c2ccc(O)c(OC)c2)ccc1O", "note": "[Curcumin]", "% of control remaining": 75.83}
{"smiles": "COc1ccc(-c2cc(=O)c3c(O)c(OC)c(OC)cc3o2)cc1", "note": "[Salvigenin]", "% of control remaining": 75.70}
{"smiles": "C=C1CC[C@@H]2[C@](C)(CO)[C@H](O)CC[C@@]2(C)[C@H]1C/C=C1\\C=COC1=O", "note": "[Dehydroandrographolide]", "% of control remaining": 89.55}
{"smiles": "COC(=O)N[C@H](C(=O)N[C@@H](Cc1ccccc1)[C@@H](O)CN(Cc1ccc(-c2ccccn2)cc1)NC(=O)[C@@H](NC(=O)OC)C(C)(C)C)C(C)(C)C", "note": "[Atazanavir]", "% of control remaining": 79.92}
{"smiles": "CC(C)(C)NCC(O)c1cc(O)cc(O)c1", "note": "(stereo not drawn) [Terbutaline]", "% of control remaining": 108.89}
{"smiles": "O=c1c(O)c(-c2ccc(O)cc2O)oc2cc(O)cc(O)c12", "note": "[Morin hydrate]", "% of control remaining": 96.10}
{"smiles": "COc1ccc(-c2coc3cc(O)cc(O)c3c2=O)cc1", "note": "[5,7-Dihydrox-4'-methoxyisoflavone]", "% of control remaining": 100.90}
{"smiles": "C[C@H]1O[C@@H](O[C@H]2[C@@H](O)C[C@H](O[C@H]3[C@@H](O)C[C@H](O[C@H]4CC[C@@]5(C)[C@H](CC[C@@H]6[C@@H]5C[C@@H](O)[C@]5(C)[C@@H](C7=CC(=O)OC7)CC[C@]65O)C4)O[C@@H]3C)O[C@@H]2C)C[C@H](O)[C@@H]1O", "note": "[Digoxin]", "% of control remaining": 99.51}
{"smiles": "COc1cc2c(cc1OC)-c1c(C)c3ccc(OC)c(OC)c3c[n+]1CC2", "note": "[Dehydrocorydaline]", "% of control remaining": 123.69}
{"smiles": "CC1(C)OC(=O)C=C[C@]2(C)[C@H]3CC[C@@]4(C)[C@H](c5ccoc5)OC(=O)[C@H]5O[C@]54[C@]3(C)C(=O)C[C@@H]12", "note": "[Obacunon]", "% of control remaining": 79.60}
{"smiles": "COc1cc(OC)c(CCC(=O)c2ccc(O)cc2)c(OC)c1", "note": "[Loureirin B]", "% of control remaining": 79.89}
{"smiles": "CCC1=C[C@@H]2CN3CCc4c([nH]c5ccccc45)[C@@](C(=O)OC)(C2)[C@@H]13", "note": "[Catharanthine]", "% of control remaining": 81.11}
{"smiles": "O=C1[C@H](CC[C@H](O)c2ccc(F)cc2)[C@@H](c2ccc(O)cc2)N1c1ccc(F)cc1", "note": "[Ezetimibe]", "% of control remaining": 119.27}
{"smiles": "CC(C(=O)O)c1cccc(Oc2ccccc2)c1", "note": "(stereo not drawn) [Fenoprofen]", "% of control remaining": 91.13}
{"smiles": "O=C1c2c(O)cc(O)cc2O[C@H](c2ccc(O)cc2)[C@H]1O", "note": "[Dihydrokaempferol]", "% of control remaining": 109.31}
{"smiles": "CC(C)OC(=O)C(C)(C)Oc1ccc(C(=O)c2ccc(Cl)cc2)cc1", "note": "[Fenofibrate]", "% of control remaining": 94.68}
{"smiles": "O=P1(N(CCCl)CCCl)NCCCO1", "note": "(stereo not drawn) [Cyclophosphamide]", "% of control remaining": 91.59}
{"smiles": "COCCc1ccc(OCC(O)CNC(C)C)cc1", "note": "(stereo not drawn) [Metoprolol tartrate]", "% of control remaining": 135.23}
{"smiles": "Cc1cc(=O)c2c(O)c3c(O[C@@H]4O[C@H](CO)[C@@H](O)[C@H](O)[C@H]4O)cccc3cc2o1", "note": "[Cassiaside]", "% of control remaining": 81.67}
{"smiles": "C#C[C@]1(O)CC[C@H]2[C@@H]3CCC4=CC(=O)CC[C@@H]4[C@H]3C(=C)C[C@@]21CC", "note": "[Etonogestrel]", "% of control remaining": 62.97}
{"smiles": "O=C(O)Cc1ccccc1Nc1c(Cl)cccc1Cl", "note": "[diclofenzc]", "% of control remaining": 97.62}
{"smiles": "CC(C)Oc1ccc2c(=O)c(-c3ccccc3)coc2c1", "note": "[Ipriflavone]", "% of control remaining": 84.50}
{"smiles": "O=C1c2c(O)cc(O)cc2O[C@H](c2cc(O)c(O)c(O)c2)[C@H]1O", "note": "[Dihydromyricetin]", "% of control remaining": 95.62}
{"smiles": "C[C@@H]1C(=O)O[C@H]2[C@H](O)[C@@]34[C@H]5C[C@@H](C(C)(C)C)[C@]36[C@@H](OC(=O)[C@@H]6O)O[C@@]4(C(=O)O5)[C@@]12O", "note": "[Ginkgolide B]", "% of control remaining": 120.07}
{"smiles": "COC1=C[C@@H]2[C@@H]3Cc4ccc(OC)c(O)c4[C@]2(CCN3C)CC1=O", "note": "[Sinomenine]", "% of control remaining": 101.42}
{"smiles": "O=c1cc(-c2ccc(O)cc2)oc2cc(O)cc(O)c12", "note": "[Apigenin]", "% of control remaining": 102.46}
{"smiles": "COc1ccc2cc([C@H](C)C(=O)O)ccc2c1", "note": "[Naproxen]", "% of control remaining": 116.02}
{"smiles": "COc1ccc(-c2oc3c(CC=C(C)C)c(O[C@@H]4O[C@H](CO)[C@@H](O)[C@H](O)[C@H]4O)cc(O)c3c(=O)c2O[C@@H]2O[C@@H](C)[C@H](O)[C@@H](O)[C@H]2O[C@@H]2O[C@@H](C)[C@H](O)[C@@H](O)[C@H]2O)cc1", "note": "[Epmedin C]", "% of control remaining": 81.94}
{"smiles": "CC1COc2c(N3CCN(C)CC3)c(F)cc3c(=O)c(C(=O)O)cn1c23", "note": "(stereo not drawn) [Ofloxacin]", "% of control remaining": 87.95}
{"smiles": "O=c1c(-c2ccc(O)cc2)coc2cc(O)cc(O)c12", "note": "[Genistein]", "% of control remaining": 106.48}
{"smiles": "CCOC(=O)C1=C[C@@H](OC(CC)CC)[C@H](NC(C)=O)[C@@H](N)C1", "note": "[Oseltamivir phosphate]", "% of control remaining": 101.77}
{"smiles": "CC(NC(C)(C)C)C(=O)c1cccc(Cl)c1", "note": "(stereo not drawn) [bupropion hydrochloride]", "% of control remaining": 120.79}
{"smiles": "C/C=C(/C)C(=O)O[C@H]1[C@@H](OC(=O)CC(C)C)c2c(ccc3ccc(=O)oc23)OC1(C)C", "note": "[Praeruptorin E]", "% of control remaining": 87.81}
{"smiles": "O=C(O)CCc1nc(-c2ccccc2)c(-c2ccccc2)o1", "note": "[Oxaprozin]", "% of control remaining": 81.83}
{"smiles": "O=C(NC[C@H]1CN(c2ccc(N3CCOCC3=O)cc2)C(=O)O1)c1ccc(Cl)s1", "note": "[Rivaroxaban]", "% of control remaining": 118.66}
{"smiles": "Cc1nnc2n1-c1ccc(Cl)cc1C(c1ccccc1)=NC2", "note": "[Alprazolam]", "% of control remaining": 68.13}
{"smiles": "COC(=O)[C@H](c1ccccc1Cl)N1CCc2sccc2C1", "note": "[Clopidogrel sulfate]", "% of control remaining": 90.49}
